Measurements as given in patent US10358449B2, “Xanthine derivative” (priority 2015, dated 2019).
pIC50: −log10 of the molar value. Marks after values point to notes of the source that are not given here.

Tests used:
CYP2D6 = CYP2D6 (Homo sapiens (Human), UniProt P10635); assay: biochemical; format: in vitro ADME
Description: (§1) 1. Test method: human liver microsomes were used to carry out inhibition activity test of the compounds to CYP enzyme. With the system for incubating human liver microsomes in vitro, the content variation of phenacetin, diclofenac, S-mephenytoin, dextromethorphan and midazolam, which were substrates of human liver microsomes CYP1A2, CYP2C9, CYP2C19, CYP2D6, CYP3A4, were measured simultaneously by cocktail probe drug method (which is a disclosed technology), the effects of TSL-0319 under different concentrations on activity of human liver microsomes CYP1A2, CYP2C9, CYP2C19, CYP2D6, CYP3A4 subtypes are evaluated and relevant IC50 was measured.

CYP3A4 = CYP3A4 (Homo sapiens (Human), UniProt P08684); assay: biochemical; format: in vitro ADME
Sequence of CYP3A4 (P08684 whole entry): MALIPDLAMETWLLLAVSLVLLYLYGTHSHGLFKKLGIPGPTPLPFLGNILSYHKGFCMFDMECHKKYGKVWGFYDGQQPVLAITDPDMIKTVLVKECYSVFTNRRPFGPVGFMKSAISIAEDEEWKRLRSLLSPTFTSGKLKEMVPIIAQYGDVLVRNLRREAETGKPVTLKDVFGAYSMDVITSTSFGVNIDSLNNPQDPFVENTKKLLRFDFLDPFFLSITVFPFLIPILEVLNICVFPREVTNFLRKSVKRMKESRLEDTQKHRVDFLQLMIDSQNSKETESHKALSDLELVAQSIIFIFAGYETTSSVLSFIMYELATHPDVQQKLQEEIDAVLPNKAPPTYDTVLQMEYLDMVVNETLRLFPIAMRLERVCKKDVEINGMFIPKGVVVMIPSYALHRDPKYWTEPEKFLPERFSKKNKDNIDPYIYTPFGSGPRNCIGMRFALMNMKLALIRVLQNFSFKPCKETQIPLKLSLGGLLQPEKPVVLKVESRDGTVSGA
Description: as §1

CYP2C9 = CYP2C9 (Homo sapiens (Human), UniProt P11712); assay: biochemical; format: in vitro ADME
Sequence of CYP2C9 (P11712 whole entry): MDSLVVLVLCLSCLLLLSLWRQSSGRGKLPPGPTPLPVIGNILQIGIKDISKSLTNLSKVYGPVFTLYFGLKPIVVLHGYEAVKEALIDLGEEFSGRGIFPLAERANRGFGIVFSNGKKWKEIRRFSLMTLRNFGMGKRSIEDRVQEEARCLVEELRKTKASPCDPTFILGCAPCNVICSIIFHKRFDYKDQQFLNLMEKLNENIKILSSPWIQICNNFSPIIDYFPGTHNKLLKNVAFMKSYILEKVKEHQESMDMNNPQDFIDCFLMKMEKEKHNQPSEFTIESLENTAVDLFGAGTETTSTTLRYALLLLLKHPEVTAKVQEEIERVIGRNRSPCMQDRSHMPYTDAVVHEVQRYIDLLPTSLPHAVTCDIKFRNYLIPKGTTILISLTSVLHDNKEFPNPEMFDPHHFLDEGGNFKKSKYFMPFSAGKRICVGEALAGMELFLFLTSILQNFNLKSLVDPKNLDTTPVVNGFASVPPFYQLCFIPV
Description: as §1

CYP1A2 = CYP1A2 (Homo sapiens (Human), UniProt P05177); assay: biochemical; format: in vitro ADME
Sequence of CYP1A2 (P05177 whole entry): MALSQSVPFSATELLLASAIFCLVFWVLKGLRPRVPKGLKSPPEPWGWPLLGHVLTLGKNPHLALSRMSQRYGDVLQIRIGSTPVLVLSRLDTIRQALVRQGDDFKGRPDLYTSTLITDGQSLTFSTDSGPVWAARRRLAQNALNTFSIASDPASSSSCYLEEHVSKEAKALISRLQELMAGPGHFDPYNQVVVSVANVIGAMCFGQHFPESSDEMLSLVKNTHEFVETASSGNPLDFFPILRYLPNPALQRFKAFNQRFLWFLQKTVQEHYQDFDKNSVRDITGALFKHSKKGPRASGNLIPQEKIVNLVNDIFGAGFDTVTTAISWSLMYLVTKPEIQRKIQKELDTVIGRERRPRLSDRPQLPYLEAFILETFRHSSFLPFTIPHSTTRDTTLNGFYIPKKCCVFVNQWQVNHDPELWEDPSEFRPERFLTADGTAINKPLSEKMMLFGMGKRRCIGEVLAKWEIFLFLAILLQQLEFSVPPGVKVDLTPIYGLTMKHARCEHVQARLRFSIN
Description: as §1

CYP2C19 = CYP2C19 (Homo sapiens (Human), UniProt P33261); assay: biochemical; format: in vitro ADME
Sequence of CYP2C19 (P33261 whole entry): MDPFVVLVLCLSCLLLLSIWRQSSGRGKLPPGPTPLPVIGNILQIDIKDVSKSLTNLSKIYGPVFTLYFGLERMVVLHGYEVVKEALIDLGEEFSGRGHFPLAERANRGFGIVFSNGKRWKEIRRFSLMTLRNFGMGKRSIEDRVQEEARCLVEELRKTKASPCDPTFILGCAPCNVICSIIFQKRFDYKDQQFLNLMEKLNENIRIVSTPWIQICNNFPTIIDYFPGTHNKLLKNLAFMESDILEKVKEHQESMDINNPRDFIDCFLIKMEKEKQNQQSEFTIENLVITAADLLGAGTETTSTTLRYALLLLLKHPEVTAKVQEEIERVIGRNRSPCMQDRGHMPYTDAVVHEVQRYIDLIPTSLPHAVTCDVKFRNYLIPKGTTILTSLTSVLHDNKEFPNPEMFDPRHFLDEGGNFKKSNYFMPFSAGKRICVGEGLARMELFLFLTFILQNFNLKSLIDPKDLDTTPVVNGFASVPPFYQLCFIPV
Description: as §1

[1] = tested on: obese mice (B6.Cg-Lepob/JNju); assay: Glucose tolerance test of obese mice; format: in vivo, mouse; design: AUC0-120 min: unit not given beside the values
Description: 2. Experimental method: normal mice, obese mice and diabetic mice were used for studying glucose tolerance tests Experimental process of OGTT (Oral Glucose Tolerance Test): fasting for 6 hours before the test begins, 60 min after drug administration, glucose was administrated by gavage (drug concentration 0.6 mg/ml, administration volume 5 ml/kg) (2 g/kg glucose was administrated to diabetic mice; 2 g/kg glucose was administrated to obese mice; and 5 g/kg glucose was administrated to normal mice), blood glucose values at 0 min, 15 min, 30 min, 45 min, 60 min and 120 min are respectively determined after glucose administration, […]

Sequence of CYP2D6 (P10635 whole entry): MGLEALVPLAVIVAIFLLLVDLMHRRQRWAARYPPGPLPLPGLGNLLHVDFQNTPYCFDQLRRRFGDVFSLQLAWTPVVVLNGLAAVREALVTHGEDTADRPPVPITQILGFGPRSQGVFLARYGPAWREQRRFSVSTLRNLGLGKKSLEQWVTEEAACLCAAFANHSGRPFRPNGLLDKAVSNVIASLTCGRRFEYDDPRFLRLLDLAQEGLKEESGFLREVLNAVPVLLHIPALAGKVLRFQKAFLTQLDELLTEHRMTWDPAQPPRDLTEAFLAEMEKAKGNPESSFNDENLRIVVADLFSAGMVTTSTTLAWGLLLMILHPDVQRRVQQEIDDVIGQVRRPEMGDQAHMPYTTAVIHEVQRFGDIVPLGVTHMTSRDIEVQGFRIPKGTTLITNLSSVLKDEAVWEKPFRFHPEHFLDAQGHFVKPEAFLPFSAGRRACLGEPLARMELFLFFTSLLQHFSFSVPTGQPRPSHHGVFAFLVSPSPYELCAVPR

pIC50 (CYP2D6): < 4.30
inhibition at 0.05 µM (CYP2D6; human, microsomes): 0%
inhibition at 0.15 µM (CYP2D6; human, microsomes): 0%
inhibition at 0.5 µM (CYP2D6; human, microsomes): 0%
inhibition at 1.5 µM (CYP2D6; human, microsomes): 0%
inhibition at 5 µM (CYP2D6; human, microsomes): 0%
inhibition at 15 µM (CYP2D6; human, microsomes): 3%
inhibition at 50 µM (CYP2D6; human, microsomes): 14.6%
pIC50 (CYP3A4): < 4.30
inhibition at 0.05 µM (CYP3A4; human, microsomes): 0%
inhibition at 0.15 µM (CYP3A4; human, microsomes): 0%
inhibition at 0.5 µM (CYP3A4; human, microsomes): 4%
inhibition at 1.5 µM (CYP3A4; human, microsomes): 4.4%
inhibition at 5 µM (CYP3A4; human, microsomes): 8.7%
inhibition at 15 µM (CYP3A4; human, microsomes): 17.9%
inhibition at 50 µM (CYP3A4; human, microsomes): 44.6%
pIC50 (CYP2C9): < 4.30
inhibition at 0.05 µM (CYP2C9; human, microsomes): 0%
inhibition at 0.15 µM (CYP2C9; human, microsomes): 0%
inhibition at 0.5 µM (CYP2C9; human, microsomes): 3.2%
inhibition at 1.5 µM (CYP2C9; human, microsomes): 5.7%
inhibition at 5 µM (CYP2C9; human, microsomes): 10.5%
inhibition at 15 µM (CYP2C9; human, microsomes): 12.1%
inhibition at 50 µM (CYP2C9; human, microsomes): 13.9%
pIC50 (CYP1A2): < 4.30
inhibition at 0.05 µM (CYP1A2; human, microsomes): 0%
inhibition at 0.15 µM (CYP1A2; human, microsomes): 0%
inhibition at 0.5 µM (CYP1A2; human, microsomes): 2.2%
inhibition at 1.5 µM (CYP1A2; human, microsomes): 4.2%
inhibition at 5 µM (CYP1A2; human, microsomes): 6.6%
inhibition at 15 µM (CYP1A2; human, microsomes): 20.8%
inhibition at 50 µM (CYP1A2; human, microsomes): 41.8%
pIC50 (CYP2C19): < 4.30
inhibition at 0.05 µM (CYP2C19; human, microsomes): 0%
inhibition at 1.5 µM (CYP2C19; human, microsomes): 3.3%
inhibition at 5 µM (CYP2C19; human, microsomes): 8.2%
inhibition at 15 µM (CYP2C19; human, microsomes): 14%
inhibition at 50 µM (CYP2C19; human, microsomes): 2.9%
Compound: CC#CCn1c(N2CCC[C@@H](N)C2)nc2c1c(=O)n(Cc1nccnc1C#N)c(=O)n2C [Compound I-3, 1-[(3-cyano-pyrazine-2-yl)methyl]-3-methyl-7-(2-butyne-1-yl)-8-[(R)-3-amino-piperidine-1-yl]-xanthine]
Blood glucose concentration 0 min ([1]; obese mice B6.Cg-Lepob/JNju, drug at -60 min (0.6 mg/ml, 5 ml/kg), 2 g/kg glucose at 0 min): 10.90 mmol/L
hypoglycemic effect ([1]; obese mice, in words): good hypoglycemic effect
Blood glucose concentration 15 min ([1]; obese mice, 15 min after glucose): 32.88 mmol/L
Blood glucose concentration 30 min ([1]; obese mice, 30 min after glucose): 25.93 mmol/L
Blood glucose concentration 45 min ([1]; obese mice, 45 min after glucose): 17.03** mmol/L
Blood glucose concentration 60 min ([1]; obese mice, 60 min after glucose): 13.88** mmol/L
Blood glucose concentration 120 min ([1]; obese mice, 120 min after glucose): 9.53* mmol/L
AUC0-120 min ([1]; obese mice, blood glucose AUC): 2025*
